One assay concerns CXCL12. The conditions noted are these: for CXCL12 expression reduced by: 4 or 18 hours, normalized; for overall expression of CXCL12, significance of change: AMD3100 for either 4 or 18 hours. The method, then:
(§1) CXCR4, CXCR7, and CXCL12 expression in ovarian cancer cells: ID8 or TOV-112D cells were plated at 750,000 cells/well in 6-well plates. Conditions were WT, WT+AMD3100 (10 μM for ID8/5 μM for TOV-112D, MedChemExpress HY-50912 and AbCam ab1207180) 16 hrs, and WT+AMD3100 4 hrs. 2× drug stocks were made in complete DMEM, final volume per well was 2 mL. GolgiPlug (BD Pharmingen) was added to all wells 3 hrs prior to harvesting according to manufacturer's protocol. CXCL12, CXCR4, and CXCR7 expression was measured by Flow Cytometry. Antibodies: anti-h/mCXCL12/SDF-1 APC (IC350A, RandD Systems), anti-mCXCR4/CD184 PE (551966, BD Bioscience), anti-hCXCR4/CD184 PE (306506, BioLegend), anti-h/mCXCR7 PE-Cy7 (331115, BioLegend).
(§2) Flow Cytometry: Cells were harvested using enzyme free dissociation buffer (Thermo Fisher Scientific 13151014) and counted using Trypan Blue viability dye (Corning). Equal numbers of cells were labeled with antibody for surface markers. Thereafter cells were stained for viability and where needed with secondary antibody. […] All incubation steps were performed at 4° C. on a rocker in the dark. Cells were washed 2× before analysis in cell staining buffer consisting of PBS containing 0.5% BSA, 0.02% Sodium Azide, and 2 mM EDTA. Analysis of samples in duplicate was done with a BD Fortessa collecting a minimum of 10,000 events per sample and using FlowJo software.

For assay [1], the target named is CXCR4 (Homo sapiens, UniProt P61073). The note with it: TOV-112D cells; for CXCR4 reduced by: AMD3100 5 μM, normalized. On the procedure:
as §1, §2

Assay [2] concerns the target CXCR7 (Homo sapiens, UniProt P25106). The conditions noted are these: TOV-112D cells. The method, then:
as §1, §2

The target in assay [3] is CXCR7 (Mus musculus, UniProt P56485). The conditions noted are these: ID8 cells. On the procedure:
as §1, §2

For assay [4], the system named is ID8 murine ovarian cancer cells. As to the kind of experiment: cells. The note with it: AMD3100 10 μM alone, 72 hours. On the procedure: (§3) Drug Titrations: TAXOL was titered to determine the concentrations used in combination with AMD3100. Cells were cultured in 96-well black assay plates with optically clear bottoms (500 and 2500 cells per well were tested), including a standard curve plate. ID8 cells were then exposed to increasing concentrations of paclitaxel (1, 0.5, 0.15, 0.05, 0.015, and 0.005 μM), and TOV cells were exposed to 15, 5, and 1 nM Taxol for 48 or 96 hr. Proliferation was measured by measuring the amount of dsDNA using CyQuant reagent and read on a Perkin Elmer Envision 2103. AMD3100 (50, 25, 10, 5, 2.5, and 1 μM) was titered in the same manner. Each condition was done in triplicate. Drugs were not replenished during any of the experiments. Data was analyzed in Prism 7.
(§4) Simultaneous Delivery of Small Molecules and Chemotherapy: To determine the effect of AMD3100 alone or in combination with TAXOL, cell proliferation was measured by seeding 2500 TOV cells and 500 ID8 cell per well in a clear bottom 96-well black assay plates. AMD3100 (final concentrations: 10 μM for ID8 and 2.5 μM for TOV) and Paclitaxel (final concentrations: 15 and 5 nM for ID8 cells and 5 and 1 nM for TOV cells) were mixed with DMEM. 100 μL of the mixture was added to the cells. Each condition was done in triplicate. Plates were incubated at 37° C. with 5% CO2 for 72 hr (ID8) and 96 hr (TOV-112D). Standard curve plates were washed the same day the experiment was done. Plates were stored at −80° C. after washing and proliferation rate was measured then by CyQuant assay.

For assay [5], the system named is TOV-112D human ovarian cancer cells. As to the kind of experiment: cells. The note with it: TOV-112D cells, AMD3100 2.5 μM alone. On the procedure: as §3
as §4, with “Plates were incubated at 37° C. with 5% CO2 for 72 hr (ID8) and 96 hr (TOV-112D).” left out

A further assay concerns 40L. Briefly: Survival in intraperitoneal malignant mesothelioma model, 40L. Type of assay: in vivo. The conditions noted are these: 40L model, C57BL/6 mice; IP once a week for four weeks; AMD3100 1 mg/kg, VIC-008 20 μg per mouse. On the procedure:
(§5) Intraperitoneal malignant mesothelioma (MM) models were established in immunocompetent C57BL/6 mice using syngeneic 40L and AE17 cell lines. Here, we tested the effect of AMD3100 and VIC-008, alone or in combination, on mouse survival in the mesothelioma-bearing mice. […], alone, was administered at 20 μg per mouse intraperitoneally (IP) once a week for four successive weeks. AMD3100 was administered at 1 mg/kg of mouse body weight via IP injection once a week for four successive weeks.

The test system of another assay is AE17. Briefly: Survival in intraperitoneal malignant mesothelioma model, AE17. Type of assay: in vivo. The conditions noted are these: C57BL/6 mice, IP once a week for four weeks, AMD3100 1 mg/kg, VIC-008 20 μg per mouse. The method, then:
as §5

Assay [6] deals with CXCR4 (Mus musculus, UniProt P70658). The note with it: ID8 cells; for expression of CXCR4 reduced by: AMD3100 10 μM, normalized, negative control 0, untreated 100.
Chain of CXCR4 (Mus musculus, UniProt P70658) (P70658 whole entry): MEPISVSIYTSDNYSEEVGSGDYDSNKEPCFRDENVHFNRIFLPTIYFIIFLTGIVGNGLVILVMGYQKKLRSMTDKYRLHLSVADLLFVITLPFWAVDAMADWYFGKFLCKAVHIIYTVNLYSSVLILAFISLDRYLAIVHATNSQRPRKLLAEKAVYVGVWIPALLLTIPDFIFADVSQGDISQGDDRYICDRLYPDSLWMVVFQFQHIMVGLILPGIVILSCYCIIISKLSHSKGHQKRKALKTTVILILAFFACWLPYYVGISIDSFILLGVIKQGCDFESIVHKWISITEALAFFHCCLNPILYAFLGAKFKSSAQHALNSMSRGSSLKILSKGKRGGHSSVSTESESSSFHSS
The next assay concerns ID8-Luc cells. The note with it: C57/B6 mice, 1 mg/kg IP every 72 hours (subtherapeutic).
Setting [7] is: AMD3100 for either 4 or 18 hours.

Where two headings read alike, the source gives them in different places.

Chain of CXCR4 (Homo sapiens, UniProt P61073) (P61073 whole entry): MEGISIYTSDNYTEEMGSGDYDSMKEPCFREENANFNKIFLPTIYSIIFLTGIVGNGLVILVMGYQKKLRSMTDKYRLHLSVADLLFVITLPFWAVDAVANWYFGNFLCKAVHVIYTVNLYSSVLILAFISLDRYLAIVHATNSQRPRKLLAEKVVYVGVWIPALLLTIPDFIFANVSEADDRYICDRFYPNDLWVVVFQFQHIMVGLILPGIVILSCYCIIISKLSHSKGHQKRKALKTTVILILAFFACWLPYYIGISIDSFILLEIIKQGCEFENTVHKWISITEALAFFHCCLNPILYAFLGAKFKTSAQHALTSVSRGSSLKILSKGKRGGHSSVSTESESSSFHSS
Chain of CXCR7 (Homo sapiens, UniProt P25106) (P25106 whole entry): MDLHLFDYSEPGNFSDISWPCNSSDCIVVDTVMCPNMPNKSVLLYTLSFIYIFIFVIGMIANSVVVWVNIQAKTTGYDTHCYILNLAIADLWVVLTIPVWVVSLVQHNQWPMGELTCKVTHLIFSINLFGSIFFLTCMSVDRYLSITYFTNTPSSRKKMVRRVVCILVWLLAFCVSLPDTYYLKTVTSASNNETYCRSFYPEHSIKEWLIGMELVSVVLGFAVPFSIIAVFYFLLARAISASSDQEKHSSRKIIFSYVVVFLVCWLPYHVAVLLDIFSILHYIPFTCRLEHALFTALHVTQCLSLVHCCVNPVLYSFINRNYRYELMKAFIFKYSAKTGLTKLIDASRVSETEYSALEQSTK
Chain of CXCR7 (Mus musculus, UniProt P56485) (P56485 whole entry): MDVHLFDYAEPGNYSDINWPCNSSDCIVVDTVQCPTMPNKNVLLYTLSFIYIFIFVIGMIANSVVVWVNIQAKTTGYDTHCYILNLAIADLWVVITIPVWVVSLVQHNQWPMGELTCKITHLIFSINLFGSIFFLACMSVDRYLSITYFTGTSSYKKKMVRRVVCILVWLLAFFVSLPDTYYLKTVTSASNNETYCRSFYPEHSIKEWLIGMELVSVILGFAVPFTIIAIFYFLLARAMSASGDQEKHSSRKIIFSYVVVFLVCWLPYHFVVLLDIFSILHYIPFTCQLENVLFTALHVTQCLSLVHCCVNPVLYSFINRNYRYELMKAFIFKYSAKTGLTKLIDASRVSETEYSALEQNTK
Experimental for ID8-Luc cells: Six- to eight-week old C57/B6 mice were injected with 5e6 ID8-Luc cells. The presence of the tumor was confirmed by luciferase imaging. The tumor bearing mice were treated with 1 mg/kg AMD-3100 by intraperitoneal (IP) injection every 72 hours or with TAXOL® (10 mg/ml).
Six- to eight-week old C57/B16 mice were injected with 5e6 ID8-Luc cells. The presence of the tumor was confirmed by luciferase imaging. The tumor bearing mice were treated with 1 mg/kg AMD-3100 by IP injection every 72 hours. In the combination treatment, the AMD3100 (1 mg/kg) and ruxolitinib (30 mg/kg) were administered concurrently but not simultaneously (i.e., administration was staggered).

In the case of Plerixafor octahydrochioride [AMD3100], the “CXCL12 expression reduced by” value with CXCL12 (ID8 cells, AMD3100 10 μM) is 9-10%; in the assay with CXCL12 (TOV-112D cells, AMD3100 5 μM) it was 5-7%. Also, the “overall expression of CXCL12, significance of change” value in the assay with CXCL12 (ID8 cells) and in the assay on CXCL12 (TOV-112D cells) was “did not significantly alter” in each case. Besides, the “CXCR4 reduced by” value on CXCR4 [1] (4 hours) turned out to be 13%; at CXCR4 [1] (18 hours), 4%. Also, the “surface expression of CXCR4, significance of change” value on CXCR4 [1] (setting [7]) and at CXCR4 [6] (setting [7]) was “did not significantly alter” throughout. Besides, at CXCR7 [2] (AMD3100 5 μM, 18 hours, normalized), the CXCR7 expression result was “returned to basal levels”. The “CXCR7 expression increased by” value at CXCR7 [2] (AMD3100 5 μM, after 4 hours, normalized) is recorded as 20%; at CXCR7 [3] (AMD3100 10 μM, 4 or 18 hours, normalized), 6%-11. Moreover, the “surface expression of CXCR7, significance of change” value at CXCR7 [2] (setting [7]) and at CXCR7 [3] (setting [7]) was “did not significantly alter” throughout. The “ID8 cell growth inhibition” value in [4] is reported as “did not significantly inhibit”. Besides, in assay [5], the “limited cell growth by” value was 24.5%. In addition, the “animal survival compared to saline control” value in the assay on 40L and with AE17 was “modest benefit to survival” in each case. For the same substance, the “expression of CXCR4 reduced by” value at CXCR4 [6] (4 hours) was 24.5%; on CXCR4 [6] (18 hours), 23.5%. The “survival of the tumor bearing mice” value in the assay on ID8-Luc cells was “extends the survival”.

Source of the values: US20190133998A1, “TREATMENT OF TUMORS WITH INHIBITORS OF CXCL12 SIGNALING AND SUBT[…] OF CHEMOTHERAPEUTIC AGENTS” (THE GENERAL HOSPITAL CORPORATION, priority 2016, published 2019).
